Source: US20260232767A1, “INTERLEUKIN-23 RECEPTOR ANTAGONIST PEPTIDES FOR USE IN THE TREATMENT OF PSORIASIS” (Janssen Pharmaceutica NV, priority 2023, published 2026)

Tested on: subjects with moderate-to-severe plaque psoriasis
Assay: PASI response, Example 2 long-term extension to Week 52
Assay type: in vivo, human
Conditions: for Change from Baseline in PASI Total Score, LSMean: MMRM model; for Subjects achieving 100% Improvement at Week 52 (PASI) / Subjects achieving ≥75% Improvement at Week 52 (PASI 75 Response) / Subjects achieving ≥90% Improvement at Week 52 (PASI): non-responder imputation
Excerpt: Described below is a multicenter, long-term extension (LTE), double-blind, dose-ranging, parallel group interventional study in participants from Example 1 to evaluate the long-term efficacy and safety of the hydrochloride salt of the compound of Formula (I) for the treatment of moderate-to-severe plaque psoriasis. Patients from Example 1 continued to receive the same dose of the compound of Formula (I) for an additional 36-week treatment period with a 4-week safety follow up period after the last administration of the compound of Formula (I). Patients randomized to placebo in Example 1 received the compound of Formula (I) at a dose of 100 mg QD starting at Week 16 of Example 1 (FIG. 21).
The primary efficacy endpoint is the proportion of participants achieving a PASI 75 response at Week 52, defined as at least a […] reduction from baseline PASI of Example 1. For primary analysis, composite strategy (non-responder imputation) was applied to address intercurrent event #1 (Discontinuation of study intervention due to lack of efficacy or due to an AE of worsening of psoriasis) and […] (initiation of a protocol-prohibited medication or therapy that could improve psoriasis); treatment policy strategy (observed data) was applied to intercurrent event #3 (Discontinuation of study intervention due to other reasons). Participants with missing data after application of ICEs are considered as non-responders.
Since there was no control arm (after week 16), in this primary analysis, only the proportion of participants who achieved a PASI75 response and its […] confidence interval at Week 52 were summarized for each intervention group.

## CC(=O)NCCCC[C@@H]1NC(=O)[C@H](Cc2c[nH]c3c(C)cccc23)NC(=O)[C@H]([C@@H](C)O)NC(=O)[C@H](CC(N)=O)NC(=O)[C@@H](NC(C)=O)C(C)(C)SSC(C)(C)[C@@H](C(=O)N[C@@H](Cc2ccc(OCCN)cc2)C(=O)N[C@@H](Cc2ccc3ccccc3c2)C(=O)NC2(C(=O)N[C@@H](CCC(=O)O)C(=O)N[C@@H](CC(N)=O)C(=O)N[C@@H](Cc3cccnc3)C(=O)N(C)CC(N)=O)CCOCC2)NC1=O [IL-23 receptor antagonist peptide, Ac-[Pen]*-N-T-[W(7-Me)]-[Lys(Ac)]-[Pen]*-Phe[4-(2-aminoethoxy)]-[2-Nal]-[THP]-E-N-[3-Pal]-Sarc-NH2 (*[Pen]-[Pen]* formdisulfidebond)]
25 mg BID, Week 1
  Change from Baseline in PASI Total Score, Mean: −1.20
  Change from Baseline in PASI Total Score, Median: −0.80
  Change from Baseline in PASI Total Score, LSMean: −1.4
25 mg BID, Week 2
  Change from Baseline in PASI Total Score, Mean: −3.65
  Change from Baseline in PASI Total Score, Median: −3.20
  Change from Baseline in PASI Total Score, LSMean: −3.8
25 mg BID, Week 4
  Change from Baseline in PASI Total Score, Mean: −6.26
  Change from Baseline in PASI Total Score, Median: −6.30
  Change from Baseline in PASI Total Score, LSMean: −6.7
25 mg BID, Week 8
  Change from Baseline in PASI Total Score, Mean: −9.72
  Change from Baseline in PASI Total Score, Median: −9.90
  Change from Baseline in PASI Total Score, LSMean: −10.2
25 mg BID, Week 12
  Change from Baseline in PASI Total Score, Mean: −11.46
  Change from Baseline in PASI Total Score, Median: −12.30
  Change from Baseline in PASI Total Score, LSMean: −11.9
25 mg BID, Week 16
  Change from Baseline in PASI Total Score, Mean: −12.73
  Change from Baseline in PASI Total Score, Median: −12.70
  Change from Baseline in PASI Total Score, LSMean: −13.0
25 mg BID, Week 20
  Change from Baseline in PASI Total Score, Mean: −13.50
  Change from Baseline in PASI Total Score, Median: −13.60
  Change from Baseline in PASI Total Score, LSMean: −13.7
25 mg BID, Week 24
  Change from Baseline in PASI Total Score, Mean: −13.64
  Change from Baseline in PASI Total Score, Median: −13.55
  Change from Baseline in PASI Total Score, LSMean: −13.5
25 mg BID, Week 28
  Change from Baseline in PASI Total Score, Mean: −14.33
  Change from Baseline in PASI Total Score, Median: −14.40
  Change from Baseline in PASI Total Score, LSMean: −14.5
25 mg BID, Week 32
  Change from Baseline in PASI Total Score, Mean: −14.36
  Change from Baseline in PASI Total Score, Median: −14.30
  Change from Baseline in PASI Total Score, LSMean: −14.6
25 mg BID, Week 40
  Change from Baseline in PASI Total Score, Mean: −13.58
  Change from Baseline in PASI Total Score, Median: −14.10
  Change from Baseline in PASI Total Score, LSMean: −13.9
25 mg BID, Week 52
  Change from Baseline in PASI Total Score, Mean: −13.24
  Change from Baseline in PASI Total Score, Median: −13.75
  Subjects achieving PASI 75: 24 (28.5%)
  Change from Baseline in PASI Total Score, LSMean: −13.6
  Subjects achieving 100% Improvement at Week 52 (PASI): (17.1%)
  Subjects achieving ≥75% Improvement at Week 52 (PASI 75 Response): 24 (58.5%)
  Subjects achieving ≥90% Improvement at Week 52 (PASI): (36.6%)
25 mg QD, Week 1
  Change from Baseline in PASI Total Score, Mean: −2.25
  Change from Baseline in PASI Total Score, Median: −0.80
  Change from Baseline in PASI Total Score, LSMean: −2.4
25 mg QD, Week 2
  Change from Baseline in PASI Total Score, Mean: −4.50
  Change from Baseline in PASI Total Score, Median: −4.00
  Change from Baseline in PASI Total Score, LSMean: −4.5
25 mg QD, Week 4
  Change from Baseline in PASI Total Score, Mean: −6.50
  Change from Baseline in PASI Total Score, Median: −5.60
  Change from Baseline in PASI Total Score, LSMean: −6.7
25 mg QD, Week 8
  Change from Baseline in PASI Total Score, Mean: −9.39
  Change from Baseline in PASI Total Score, Median: −7.70
  Change from Baseline in PASI Total Score, LSMean: −9.5
25 mg QD, Week 12
  Change from Baseline in PASI Total Score, Mean: −10.71
  Change from Baseline in PASI Total Score, Median: −9.20
  Change from Baseline in PASI Total Score, LSMean: −10.8
25 mg QD, Week 16
  Change from Baseline in PASI Total Score, Mean: −12.76
  Change from Baseline in PASI Total Score, Median: −12.20
  Change from Baseline in PASI Total Score, LSMean: −12.0
25 mg QD, Week 20
  Change from Baseline in PASI Total Score, Mean: −14.01
  Change from Baseline in PASI Total Score, Median: −13.70
  Change from Baseline in PASI Total Score, LSMean: −13.2
25 mg QD, Week 24
  Change from Baseline in PASI Total Score, Mean: −13.56
  Change from Baseline in PASI Total Score, Median: −14.30
  Change from Baseline in PASI Total Score, LSMean: −12.8
25 mg QD, Week 28
  Change from Baseline in PASI Total Score, Mean: −13.35
  Change from Baseline in PASI Total Score, Median: −14.60
  Change from Baseline in PASI Total Score, LSMean: −13.3
25 mg QD, Week 32
  Change from Baseline in PASI Total Score, Mean: −14.06
  Change from Baseline in PASI Total Score, Median: −15.50
  Change from Baseline in PASI Total Score, LSMean: −13.6
25 mg QD, Week 40
  Change from Baseline in PASI Total Score, Mean: −13.70
  Change from Baseline in PASI Total Score, Median: −15.25
  Change from Baseline in PASI Total Score, LSMean: −13.1
25 mg QD, Week 52
  Change from Baseline in PASI Total Score, Mean: −13.55
  Change from Baseline in PASI Total Score, Median: −14.55
  Subjects achieving PASI 75: 21 (48.8%)
  Change from Baseline in PASI Total Score, LSMean: −12.9
  Subjects achieving 100% Improvement at Week 52 (PASI): (14.0%)
  Subjects achieving ≥75% Improvement at Week 52 (PASI 75 Response): 21 (48.8%)
  Subjects achieving ≥90% Improvement at Week 52 (PASI): (27.9%)
50 mg QD, Week 1
  Change from Baseline in PASI Total Score, Mean: −3.10
  Change from Baseline in PASI Total Score, Median: −1.80
  Change from Baseline in PASI Total Score, LSMean: −3.1
50 mg QD, Week 2
  Change from Baseline in PASI Total Score, Mean: −5.74
  Change from Baseline in PASI Total Score, Median: −4.30
  Change from Baseline in PASI Total Score, LSMean: −5.7
50 mg QD, Week 4
  Change from Baseline in PASI Total Score, Mean: −8.25
  Change from Baseline in PASI Total Score, Median: −7.85
  Change from Baseline in PASI Total Score, LSMean: −8.2
50 mg QD, Week 8
  Change from Baseline in PASI Total Score, Mean: −11.41
  Change from Baseline in PASI Total Score, Median: −11.85
  Change from Baseline in PASI Total Score, LSMean: −11.3
50 mg QD, Week 12
  Change from Baseline in PASI Total Score, Mean: −12.96
  Change from Baseline in PASI Total Score, Median: −14.25
  Change from Baseline in PASI Total Score, LSMean: −12.8
50 mg QD, Week 16
  Change from Baseline in PASI Total Score, Mean: −14.56
